One block for each molecule: values may come before it.
Legend:
[1] = Preliminary solubility test, in situ salt formation from the amorphous base in water at room temperature; assay type: physicochemical
[2] = Purity and stability under long term conditions; assay type: physicochemical
Excerpt: Purity and stability of N-(2,6-diethylphenyl)-8-({4-[4-(dimethylamino) piperidin-1-yl]-2-methoxy phenyl}amino)-1-methyl-4,5-dihydro-1H-pyrazolo[4,3-h]quinazoline-3-carboxamide phosphate Form I have been tested under long term conditions as follows: […]

[3] = Hygroscopicity by Dynamic Vapour Sorption; assay type: physicochemical
Procedure: The compound to be tested is submitted to hygroscopicity test by means of a Dynamic Vapour Sorption apparatus (DVS 1000—Surface Measurement Systems).
The apparatus is briefly defined as a “controlled atmosphere microbalance” where the weighed sample is exposed to variations of the relative humidity (RH) at a constant and controlled temperature. An exactly weighed amount of the product (generally 5-10 mg) was analysed.

[4] = Stability over time under denaturing conditions (40° C./75% RH), chemical purity; assay type: physicochemical
Procedure: The compound of formula (II) according to the invention has a good stability over time under denaturing conditions (40° C./75% Relative Humidity (RH)): […]

[5] = Solubility of phosphate salt crystalline form I in water (WFI) or NaCl 0.9% at room temperature, HPLC; assay type: physicochemical; conditions: for Solubility 1 hour / Solubility 24 hours: room temperature
Procedure: Testing conditions: about 730 mg of testing compound were suspended in 4 ml of WFI (water for injection) or Saline (0.9% NaCl) to test a target solubility of 150 mg/ml as free base. The suspensions were magnetically stirred for 24 hours at room temperature and protected from light in amber glass vial. Testing compound concentrations were determined after 1 and 24 hours.

[6] = target: T1, MPS1 (Monopolar Spindle 1) kinase, also known as TTK (Homo sapiens, UniProt P33981); conditions: cited from earlier work
T1 sequence (P33981 1-857): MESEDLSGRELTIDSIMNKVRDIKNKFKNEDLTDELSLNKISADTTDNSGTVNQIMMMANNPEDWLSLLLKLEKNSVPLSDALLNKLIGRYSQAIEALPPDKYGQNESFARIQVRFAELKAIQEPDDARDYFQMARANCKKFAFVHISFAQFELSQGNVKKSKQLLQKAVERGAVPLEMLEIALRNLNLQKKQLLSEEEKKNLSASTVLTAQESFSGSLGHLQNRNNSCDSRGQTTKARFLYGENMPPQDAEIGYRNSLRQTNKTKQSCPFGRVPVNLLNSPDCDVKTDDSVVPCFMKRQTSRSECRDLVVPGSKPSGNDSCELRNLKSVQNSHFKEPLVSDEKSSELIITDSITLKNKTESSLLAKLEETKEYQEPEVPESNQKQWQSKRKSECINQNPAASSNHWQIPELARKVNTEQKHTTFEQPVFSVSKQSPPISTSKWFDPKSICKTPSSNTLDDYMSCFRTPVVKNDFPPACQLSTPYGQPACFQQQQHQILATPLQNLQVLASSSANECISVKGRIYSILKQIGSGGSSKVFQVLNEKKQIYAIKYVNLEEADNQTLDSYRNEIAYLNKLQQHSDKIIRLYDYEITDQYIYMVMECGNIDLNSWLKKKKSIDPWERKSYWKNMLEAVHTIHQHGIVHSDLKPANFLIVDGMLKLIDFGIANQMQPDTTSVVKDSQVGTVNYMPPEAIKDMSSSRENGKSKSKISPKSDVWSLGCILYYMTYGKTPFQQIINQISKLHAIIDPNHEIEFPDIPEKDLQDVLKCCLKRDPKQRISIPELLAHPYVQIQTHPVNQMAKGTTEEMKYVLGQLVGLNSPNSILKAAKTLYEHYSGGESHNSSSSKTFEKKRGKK

Improvement of solubility versus the free base [1]: at least 24 000 times
Improvement of solubility versus the hydrochloride salt [1]: at least 25 times
Appearance ([2]; 1 month 5° C.): Yellow
Drug substance ([2]; 1 month 5° C.): 99.94%
Total amount of impurities ([2]; 1 month 5° C.): 0.06%
Appearance ([2]; 1 month 25° C./60% RH): Yellow
Drug substance ([2]; 1 month 25° C./60% RH): 99.93%
Total amount of impurities ([2]; 1 month 25° C./60% RH): 0.07%
Appearance ([2]; 3 months 5° C.): Yellow
Drug substance ([2]; 3 months 5° C.): 99.93%
Total amount of impurities ([2]; 3 months 5° C.): 0.07%
Appearance ([2]; 3 months 25° C./60% RH): Yellow
Drug substance ([2]; 3 months 25° C./60% RH): 99.93%
Total amount of impurities ([2]; 3 months 25° C./60% RH): 0.07%
Appearance ([2]; 9 months 5° C.): Yellow
Drug substance ([2]; 9 months 5° C.): 99.93%
Total amount of impurities ([2]; 9 months 5° C.): 0.07%
Appearance ([2]; 12 months 5° C.): Yellow
Crystalline Form (XRD assessment) ([2]; 12 months 5° C.): Form I
Drug substance ([2]; 12 months 5° C.): 99.94%
Total amount of impurities ([2]; 12 months 5° C.): 0.06%
Appearance ([2]; 24 months 5° C.): Yellow
Crystalline Form (XRD assessment) ([2]; 24 months 5° C.): Form I
Drug substance ([2]; 24 months 5° C.): 99.91%
Total amount of impurities ([2]; 24 months 5° C.): 0.09%
Time over which the substance is stable ([2]; long term conditions): ≥ 24 months
Appearance ([2]; t0): Yellow
Crystalline Form (XRD assessment) ([2]; t0): Form I
Drug substance ([2]; t0): 99.94%
Total amount of impurities ([2]; t0): 0.06%
Water uptake at 30% RH [3]: 0.4%
Water uptake at 60% RH [3]: 1%
Water uptake at 90% RH [3]: 2.5%
Chemical purity ([4]; 1 month 40° C./75% RH Open bottle): 99.4%
Chemical purity ([4]; t0): 99.5%
Solubility 1 hour ([5]; NaCl 0.9%): 81.0 mg/ml as free base
Solubility 24 hours ([5]; NaCl 0.9%): 133.6 mg/ml as free base
Solubility 1 hour ([5]; water): 87.5 mg/ml as free base
Solubility 24 hours ([5]; water): 130.2 mg/ml as free base
SMILES: CCc1cccc(CC)c1NC(=O)c1nn(C)c2c1CCc1cnc(Nc3ccc(N4CCC(N(C)C)CC4)cc3OC)nc1-2.O=P(O)(O)O [Phosphate salt, N-(2,6-diethylphenyl)-8-({4-[4-(dimethylamino)piperidin-1-yl]-2-methoxyphenyl}amino)-1-methyl-4,5-dihydro-1H-pyrazolo[4,3-h]quinazoline-3-carboxamide phosphate]
Solubility at room temperature ([5]; both in water and in NaCl 0.9%): at least 130 mg/ml expressed as free base

Solubility 1 hour ([1]; water, 1 hour): <0.001 mg/ml as free base
Solubility 24 hours ([1]; water, 24 hours): <0.001 mg/ml as free base
Water uptake at 30% RH [3]: 0.4%
Water uptake at 60% RH [3]: 1%
Water uptake at 90% RH [3]: 2.8%
Solubility 1 hour ([5]; water): <0.001 mg/ml as free base
Solubility 24 hours ([5]; water): <0.001 mg/ml as free base
SMILES: CCc1cccc(CC)c1NC(=O)c1nn(C)c2c1CCc1cnc(Nc3ccc(N4CCC(N(C)C)CC4)cc3OC)nc1-2 [Free Base, N-(2,6-diethylphenyl)-8-({4-[4-(dimethylamino)piperidin-1-yl]-2-methoxyphenyl}amino)-1-methyl-4,5-dihydro-1H-pyrazolo[4,3-h]quinazoline-3-carboxamide]
Ability to inhibit MPS1 kinase [6]: has the ability to inhibit MPS1

— patent publication US11160806B2, “Salt of N-(2,6-diethylphenyl)-8-({4-[4-(dimethylamino) piperidin-1-yl]-2-methoxyphenyl}amino)-1-methyl-4,5-dihydro-1H-pyrazolo[4,3-h]quinazoline-3-carboxamide, its preparation, and formulations containing it” (LES LABORATOIRES SERVIER, priority 2017, dated 2021)
